From PMC8944975, “Secretin Receptor as a Target in Gastrointestinal Cancer: Expression Analysis and Ligand Development” (Biomedicines, 2022)
Where two headings read alike, the source gives them in different places. Values belong to the molecule of their own block, whether it stands above or below them. Where no end group is shown, it is not given here. [ ]: non-standard residue; d: D form.

What was measured:
SCTR = conditions: variant of rat secretin(5–27); cited from earlier work
Excerpt: (§1) Early studies of secretin had shown that its biological activity resides particularly in the amino terminus. […] Despite their lack of activation, these truncated peptides were able to displace native secretin at high concentrations.

[1] = molecular target: T1, human secretin receptor (SCTR) (human, UniProt P47872 23-440); assay: radioligand binding; saturation binding of I^125-secretin on U2OS-SCTR membrane isolates; total, unspecific and specific binding
[2] = tested on: pancreatic secretion of both fluid and bicarbonate; conditions: cited from earlier work
Excerpt: as §1

human SCTR = human SCTR (Homo sapiens, UniProt P47872); assay: GloSensor cAMP assay, agonist mode; assay type: cell-based; set-up: expressed in transfected cells; conditions: GloSensor cAMP assay; at least 3 independent experiments in duplicates; read-out: cAMP Production, Intrinsic Activity
Procedure: Analysis of downstream signaling of activated SCTR via Gαs G-protein subunits was performed by monitoring intracellular cAMP utilizing the GloSensor system (Promega, Walldorf, Germany) in accordance with the supplier protocol. Measurements were performed using the EnVision Analyzer (PerkinElmer, Rodgau, Germany). For evaluation, concentration–response curves (signal-to-noise ratios plotted) employing the derived statistical mean and SD for estimation of the respective EC50 were calculated using Spotfire Decision Site (TIBCO, Palo Alto, CA, USA). For the analysis of antagonists, a modified protocol was used. Treatment of cells and dilution of the potential antagonist was performed as previously described. Ligand dilutions were added to cells and incubated at room temperature for 5 min. Successively, secretin was added at a final concentration of 0.5 nM for an additional 15 min at room temperature. The emitted chemiluminescence, which correlates with the cAMP concentration, was detected with suitable filters. Evaluation of data was performed as previously described with a calculation of half-maximal inhibitory concentration (IC50).

[3] = in vivo; cited from earlier work
Excerpt: Due to their vulnerability towards proteolytic degradation, most peptide hormones have short half-lives of only a few minutes. […] To chemically stabilize a peptide ligand by the introduction of artificial amino acids, the amino acid positions crucial for its activity need to be identified. The experimental strategy included design and synthesis of a library of secretin variants that would contain single amino acid substitutions as well as truncations on either end. To characterize a large number of individual peptides ...

[4] = tested on: isolated pancreatic membranes; conditions: cited from earlier work
Excerpt: as §1

[5] = molecular target: T1, human secretin receptor (SCTR)
[6] = molecular target: T1, human secretin receptor (SCTR); assay: cell-based or functional assay

T1 sequence (P47872 23-440): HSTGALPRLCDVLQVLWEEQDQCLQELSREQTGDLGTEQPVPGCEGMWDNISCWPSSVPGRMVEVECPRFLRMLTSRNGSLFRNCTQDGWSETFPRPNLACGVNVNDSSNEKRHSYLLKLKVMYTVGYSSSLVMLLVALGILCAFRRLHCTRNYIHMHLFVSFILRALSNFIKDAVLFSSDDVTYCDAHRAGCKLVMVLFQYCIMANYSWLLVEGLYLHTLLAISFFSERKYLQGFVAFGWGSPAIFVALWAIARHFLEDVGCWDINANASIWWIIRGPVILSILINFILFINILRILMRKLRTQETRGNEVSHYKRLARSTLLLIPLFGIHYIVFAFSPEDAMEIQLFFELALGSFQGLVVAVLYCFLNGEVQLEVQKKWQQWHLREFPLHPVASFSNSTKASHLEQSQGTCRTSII
Chain of human SCTR (P47872 23-440): as above

Molecule: [I17, R25]-secretin(5–27)
affinity (SCTR): 23 nM

Molecule: [(CH2NH)4,5]secretin
effect on pancreatic secretion, in words [2]: dose-dependently increased pancreatic secretion of both fluid and bicarbonate

Molecule: Secretin(2–27): N-terminally truncated secretin variant (amino acids 2–27) of the literature (SDGTFTSELSRLREGARLQRLLQGLV; ends and bridges not checked; UniProt P09683 29-54, looked up, fragment)
effect on cAMP synthesis / agonistic effects, in words [4]: severe reduction on cAMP synthesis

Molecule: [dR]FTSELSRLREGARLQRLLAGLV (ends and bridges not checked) [peptide 143]
cAMP production (GloSensor), agonist mode: intrinsic activity [% of secretin] [6]: 27.5%

Continued, in another order:

Kd [1]: 0.074 nM
Molecule: ^125I-labelled W27, Y28-secretin (peptide)

Emax (human SCTR): 100%
Molecule: CC(C)C[C@H](NC(=O)CNC(=O)[C@H](CCC(N)=O)NC(=O)[C@H](CC(C)C)NC(=O)[C@H](CC(C)C)NC(=O)[C@H](CCCNC(=N)N)NC(=O)[C@H](CCC(N)=O)NC(=O)[C@H](CC(C)C)NC(=O)[C@H](CCCNC(=N)N)NC(=O)[C@H](C)NC(=O)CNC(=O)[C@H](CCC(=O)O)NC(=O)[C@H](CCCNC(=N)N)NC(=O)[C@H](CC(C)C)NC(=O)[C@H](CCCNC(=N)N)NC(=O)[C@H](CO)NC(=O)[C@H](CC(C)C)NC(=O)[C@H](CCC(=O)O)NC(=O)[C@H](CO)NC(=O)[C@@H](NC(=O)[C@H](Cc1ccccc1)NC(=O)[C@@H](NC(=O)CNC(=O)[C@H](CC(=O)O)NC(=O)[C@H](CO)NC(=O)[C@@H](N)Cc1c[nH]cn1)[C@@H](C)O)[C@@H](C)O)C(=O)N[C@H](C(N)=O)C(C)C [Peptide 1, reference compound]
half-life [3]: 2.5 to 4 min

cAMP production (GloSensor), agonist mode: EC50 [5]: 3370 nM
cAMP production (GloSensor), agonist mode: intrinsic activity [% of secretin] [5]: 90.6%
Molecule: TSELSRLREGARLQRLLQGLV [peptide 120, secretin(7–27)]

cAMP production (GloSensor), agonist mode: intrinsic activity [% of secretin] [6]: 31.1%
Molecule: [dR]FTSELSRLREGARLQRLLQALV (ends and bridges not checked) [peptide 144]
